We go through eight compounds from patent publication US20120052079A1, “Compositions, Kits, and Methods for Predicting Anti-Cancer Response to Anthracyclines” (Dana-Farber Cancer Institute, Inc., priority 2010, published 2012).

Common to all, as to format: cell-based, human
Assay [1] has as its system BT549 cells. The experiment in a line: Cathepsin release and Bid, caspase 3, PARP cleavage by immunoblot. The conditions noted are these: for LAPTM4B knockdown-induced Bid truncation and apoptosis: BT549 pretreated with cathepsin inhibitors. Here is the method: Cytosolic extraction was performed using the detergent digitonin which permeabilizes cholesterol-rich membranes such as plasma membrane, leaving the cholesterol-poor membranes of lysosomes and mitochondria more or less intact. Cells were exposed to an extraction buffer (250 mM sucrose, 20 mM Hepes, 10 mM KCl, 1.5 mM MgCl2, 1 mM EDTA, 1 mM EGTA, and 1 mM Pefabloc, pH 7.5) containing 25 μg/ml digitonin for 20 min on ice, inverting the tubes every 2 min. The extraction buffer was collected and proteins were precipitated by addition of 5% trichloric acid on ice for 10 min and centrifuged at ˜20,800×g for 15 min to obtain the protein pellet. The pellet was dissolved in lysis buffer.
Tumor cell line lysates or cytosols were fractionated in 7, 12 or 14% SDS-PAGE, electrophoretically transferred to a nitrocellulose membrane and probed with primary antibodies (monoclonal Anti-β-Actin antibody (Sigma), anti-Bid (BD PharMingen), anti-caspase 3, anti-H is, anti-LC3 and anti-PARP antibodies (Cell Signaling Technology), and anti-cathepsin B, anti-cathepsin D, anti-p62, HRP-conjugated secondary antibodies and FITC-conjugated secondary antibodies (Abcam). The probed proteins were visualized using the ECL Western blotting detection system from Pierce according to the manufacturer's instructions. Band densities were quantified on a AlphaImager HP imaging system (Cell Biosciences).
(In western blotting, separated proteins are transferred to a membrane and probed.)

The next assay has as its system MDA468 cells. The experiment in a line: Autophagy markers LC3 and p62 by immunoblot, LAPTM4B overexpression. To be noted: MDA468 with stable LAPTM4B over expression. An excerpt:
Band densities were quantified on a AlphaImager HP imaging system (Cell Biosciences).

The subject of assay [2] is MDA-MB-231 (MDA231) and BT549 cells. In words: Drug-induced apoptosis, Western blot for active caspase 3 and cleaved PARP. To be noted: doxorubicin 1 μM or cisplatin 25 μM, 48 h. As to the method: (§1) Viable cell number was quantified using CellTiter 96® Aqueous One Solution Cell Proliferation Assay (Promega). Results are reported as optical density at 490 nm wavelength. Cells (4,000 well^−1) were seeded into 96-well plates in triplicate. siRNA transfections were performed 24 h after cell seeding. Chemotherapeutic drugs (daunorubicin, doxorubicin, paclitaxel, and cisplatin) were added 24 h after cell seeding or siRNA transfection. Cells were exposed to a series of concentrations of individual drugs for additional 48 h. Results are presented as the percentage of viable cells in drug-treated wells vs. media-treated control wells and plotted as a drug-dose dependent cell survive curve. The dose of drug causing a fifty percent reduction of viable cells (IC50) determined drug sensitivity. Drug-induced apoptosis was evaluated 48 h after drug treatment (doxorubicin at 1 μM or cisplatin at 25 μM) following siRNA transfection by detection of active caspase 3 and cleaved poly(ADP-ribose) polymerase (PARP) by Western blot analysis using caspase 3- and PARP-specific antibodies (Cell Signaling Technology), respectively.

The subject of assay [3] is MDA-MB-231 (MDA231), HCC38 and CAMA-1. The experiment in a line: Cell growth assay, drug sensitivity after LAPTM4B/YWHAZ siRNA knockdown. To be noted: siRNA knockdown vs control siRNA. Here is the method: Gene-specific and negative control oligonucleotides (Stealth™ Select RNAi, Invitrogen) were transfected using the Lipofectamine™ RNAi MAX protocol from Invitrogen. Three gene-specific oligonucleotide siRNAs were tested for each gene (LAPTM4b siRNA1: 5′-[…]-3′ and 3′-[…]-5′; LAPTM4b siRNA2: 5′-[…]-3′ and 3′-[…]-5′; LAPTM4b siRNA3: 5′-[…]-3′ and 3′-[…]-5′; LAPTM4b shRNA: Top strand, […], Bottom strand, […]; YWHAZ siRNA1: 5′-[…]-3′ and 3′-[…]-5′; YWHAZ siRNA2: 5′-[…]-3′ and 3′-[…]-5′; and YWHAZ siRNA3: 5′-[…]-3′ and 3′-[…]-5′). Transfections were performed in triplicate and the experiment was repeated four times to estimate the effect and standard deviation from the mean. Because specific antibodies were not available for the 12 genes tested, the effectiveness of siRNA knockdown by each oligonucleotide was determined by qRT-PCR assay of mRNA levels according to methods described herein.
as §1

The test system of a further assay is HMEC cells. The experiment in a line: Cell growth assay (CellTiter 96), drug IC50 in HMEC transfected with LAPTM4B-HA or YWHAZ-HA. To be noted: for effect of exogenous LAPTM4B or YWHAZ on sensitivity to drug: HMEC expressing exogenous LAPTM4B or YWHAZ.
Description: The full length LAPTM4B and YWHAZ cDNAs linked to an HA tag were cloned into the pWZL (Boehm et al. (2005) Mol. Cell. Biol. 25, 6464-6474) and pBabe vectors, respectively, and packaged using the Phoenix™ Retroviral System from Orbigen. pWZL-LAPTM4B HA and pBabe-YWHAZ-HA were introduced into HMEC cells by retroviral infection and stably selected with blasticidin and puromycin, respectively.
as §1

Assay [4] relates to BT549 cells. In words: Cellular distribution of doxorubicin (autofluorescence, confocal). As to the method:
Twenty-four h after transfection with specific siRNA or control oligos, cells were challenged with 0.5 μM doxorubicin in complete medium for 24 h. After 24 h, the drug was removed and cells were cultured in fresh drug-free medium and examined at 36 and 48 h time points. At each time point, cells were washed twice in PBS, and fixed for 5 min in 3.0% paraformaldehyde and permeabilized in 0.1% Triton X-100 for 5 min. Following washing with PBS, cells were mounted in Prolong Gold® anti-fade reagent with DAPI (Invitrogen). Subcellular localization of doxorubicin was viewed by the Rhodamine (Cy3) channel and nuclear staining was viewed by the DAPI channel on a Zeiss HAL100 fluorescence microscope.
Forty-eight hours after transfection with specific siRNA or scramble control oligonucleotide, cells were treated with 0.1 μM doxorubicin in complete medium for 24 hours. After 24 hours of drug exposure, the drug was removed and cells were cultured in fresh drug-free medium and examined 24 hours later. Cells were washed, fixed and stained with DAPI as described in Li et al. (2010) Nat. Med., 16, 214-218. Subcellular localization of doxorubicin autofluorescence (excited wave: 480 nm; emitted wave: 560-620 nm) and lysosomes indicated by LysoTracker DND-26 (excited wave: 504 nm; emitted wave: 509-540 nm) was examined on a Leica SP5X Laser Scanning Confocal Microscope with a white light laser.

The next assay deals with MDA-MB-231 cells. In words: Cellular distribution of doxorubicin (autofluorescence). To be noted: 0.5 μM doxorubicin; detectable within 12 h to 24 h, sustained at 48 h.
[5] abbreviates: BT549 pretreated with pan-caspase inhibitor.

Turning to `CCOC(=O)[C@H]1O[C@@H]1C(=O)N[C@@H](CC(C)C)C(=O)NCCC(C)C` (relative stereo) [EST, trans-epoxysuccinyl-L-leucylamindo-3-methylbutane ethyl ester], in the assay on BT549 cells [1], the “LAPTM4B knockdown-induced Bid truncation and apoptosis” value is reported as “protected”.

As for `CCN(CC)CCCC(C)Nc1ccnc2cc(Cl)ccc12` (stereo not drawn) [chloroquine], in the assay on MDA468 cells, the “starvation-induced autophagy (higher LC3II, lower p62) by LAPTM4B over expression” value was “blocked”.

Consider `N.N.[Cl][Pt][Cl]` [cisplatin], for which, in assay [2], the “drug-induced apoptosis after knockdown of LAPTM4B or YWHAZ” value is given as “less apparent”. Also, the “sensitivity to drug after specific knockdown of LAPTM4B and YWHAZ” value (“sensitivity to drug … of LAPTM4B and YWHAZ” for short) in assay [3] is “weaker or no effect”. The “effect of exogenous LAPTM4B or YWHAZ on sensitivity to drug” value in the assay on HMEC cells is reported as “no significant effect”.

Consider `COc1cccc2c1C(=O)c1c(O)c3c(c(O)c1C2=O)C[C@@](O)(C(C)=O)C[C@@H]3O[C@H]1C[C@H](N)[C@H](O)[C@H](C)O1` [daunorubicin], for which the “sensitivity to drug … of LAPTM4B and YWHAZ” value in assay [3] is “increased sensitivity”.

`COc1cccc2c1C(=O)c1c(O)c3c(c(O)c1C2=O)C[C@@](O)(C(=O)CO)C[C@@H]3O[C@H]1C[C@H](N)[C@H](O)[C@H](C)O1` [doxorubicin]: the “doxorubicin distribution after down-regulation of LAPTM4B” value in the assay with BT549 cells [4] (BT549, LAPTM4B-specific siRNA, 48 hours exposure) was “release of doxorubicin from lysosomes”. In addition, the “intracellular distribution of doxorubicin autofluorescence” value with BT549 cells [4] (BT549 overexpressing LAPTM4B, Lysotracker green DND-26) is listed as “co-localizes with the lysosome marker”. In addition, the “drug-induced apoptosis after knockdown of LAPTM4B or YWHAZ” value in assay [2] is recorded as “considerably increased”. Further, the “sensitivity to drug … of LAPTM4B and YWHAZ” value in assay [3] was “increased sensitivity”. For the same compound, the “increase in IC50 of doxorubicin” value with HMEC cells (HMEC expressing exogenous LAPTM4B vs control vector, P<0.002) worked out at 270%; in the assay with HMEC cells (HMEC expressing exogenous YWHAZ vs control vector, P=0.0001) it was 394%. The “nuclear localization of doxorubicin after LAPTM4B siRNA knockdown” value in the assay on MDA-MB-231 cells is on record as “substantial increase in nuclear localization”.

Take `CC(=O)O[C@H]1C(=O)[C@@]2(C)[C@H]([C@H](OC(=O)c3ccccc3)[C@]3(O)C[C@H](OC(=O)[C@H](O)[C@@H](NC(=O)c4ccccc4)c4ccccc4)C(C)=C1C3(C)C)[C@]1(OC(C)=O)CO[C@@H]1C[C@@H]2O` [paclitaxel]: in assay [3], the “sensitivity to drug … of LAPTM4B and YWHAZ” value is on record as “weaker or no effect”. The “effect of exogenous LAPTM4B or YWHAZ on sensitivity to drug” value in the assay on HMEC cells was “no significant effect”.

In the case of pepstatin A, the “LAPTM4B knockdown-induced Bid truncation and apoptosis” value in the assay with BT549 cells [1] is listed as “protected”.

“z-Val-Ala-Asp-fluoromethylketone [z-VAD-FMK]”: in the assay on BT549 cells [1] (setting [5]), the “Bid truncation after LAPTM4B knockdown” value was “did not prevent Bid truncation” and the “caspase 3 activation after LAPTM4B knockdown” value is on record as “sufficient to abrogate caspase 3 activation”.
